Source: US20230107642A1 (Erasca, Inc., priority 2020, published 2023)

Target: T1, Cys12 of the KRAS 4B G12C protein (Homo sapiens, UniProt P01116, G12C)
T1 construct: This protein contained 188 amino acids in total, including an N-terminal 6-Histidine tag; made in house; host or cells: E. coli BL21
Test: In vitro covalent adduct formation (CAF) assay, LC-MS intact mass
Format: binding
Conditions: 10 uM compound, 60 min
Procedure, shortened: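 GDP-loaded (>95%) His-TEV-tagged KRAS 4B G12C (residues 1–169), 5 μM in TBS pH 7.4, incubated with 10 μM compound (4% DMSO) at 22° C for one hour. Intact-protein LC-MS gave free:adduct ratios, reported as percent protein modified; duplicate runs.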

Row | % CAF 10 uM @ 60 min [%] | Compound
1 | 92.5 | [2H]C([2H])([2H])OC[C@H]1CSc2c(-c3cc(Cl)c(F)cc3F)c(C(F)(F)F)cc3c(N4C[C@@H](C)N(C(=O)C=C)[C@@H](C)C4)nc(=O)n1c23 [Example 1417, (3S)-7-((3S,5R)-4-acryloyl-3,5-dimethylpiperazin-1-yl)-10-(5-chloro-2,4-difluorophenyl)-3-((methoxy-d3)methyl)-9-(trifluoromethyl)-2,3-dihydro-5H-[1,4]thiazino[2,3,4-ij]quinazolin-5-one]
2 | 99 | C=CC(=O)N1CCN(c2nc(=O)n3c4c(c(-c5cc(Cl)c(F)cc5F)c(C(F)(F)F)cc24)SC[C@@H]3CN2CCN(CC)CC2)CC1 (atropisomer, axis not shown) [Example 1338, (3S,10R)-7-(4-acryloylpiperazin-1-yl)-10-(5-chloro-2,4-difluorophenyl)-3-((4-ethylpiperazin-1-yl)methyl)-9-(trifluoromethyl)-2,3-dihydro-5H-[1,4]thiazino[2,3,4-ij]quinazolin-5-one]
3 | 95.1 | [2H]C([2H])([2H])OC[C@H]1CSc2c(-c3ccc(F)cc3)c(C(F)(F)F)cc3c(N4C[C@@H](C)N(C(=O)C=C)[C@@H](C)C4)nc(=O)n1c23 [Example 1413, (S)-7-((3S,5R)-4-acryloyl-3,5-dimethylpiperazin-1-yl)-10-(4-fluorophenyl)-3-((methoxy-d3)methyl)-9-(trifluoromethyl)-2,3-dihydro-5H-[1,4]thiazino[2,3,4-ij]quinazolin-5-one]
4 | 71.3 | C=CC(=O)N1CCN(c2nc(=O)n3c4c(c(-c5c(F)ccc6cnn(C)c56)c(C(F)(F)F)cc24)SC[C@@H]3COC)CC1 (atropisomer, axis not shown) [Example 1416, (3S,10R)-7-(4-acryloylpiperazin-1-yl)-10-(6-fluoro-1-methyl-1H-indazol-7-yl)-3-(methoxymethyl)-9-(trifluoromethyl)-2,3-dihydro-5H-[1,4]thiazino[2,3,4-ij]quinazolin-5-one]
5 | 64.9 | [2H]C([2H])=C([2H])C(=O)N1[C@H](C)CN(c2nc(=O)n3c4c(c(-c5cc(Cl)c(F)cc5F)c(C(F)(F)F)cc24)SC[C@@H]3COC)C[C@@H]1C (atropisomer, axis not shown) [Example 1392, (3S,10S)-7-((3S,5R)-4-(acryloyl-d3)-3,5-dimethylpiperazin-1-yl)-10-(5-chloro-2,4-difluorophenyl)-3-(methoxymethyl)-9-(trifluoromethyl)-2,3-dihydro-5H-[1,4]thiazino[2,3,4-ij]quinazolin-5-one]
6 | 95.4 | C=CC(=O)N1[C@H](C)CN(c2nc(=O)n3c4c(c(-c5ccc(F)cc5F)c(C(F)(F)F)cc24)SC[C@@H]3CN2CCN(CC)CC2)C[C@@H]1C (atropisomer, axis not shown) [Example 1329, (3S,10R)-7-((3S,5R)-4-acryloyl-3,5-dimethylpiperazin-1-yl)-10-(2,4-difluorophenyl)-3-((4-ethylpiperazin-1-yl)methyl)-9-(trifluoromethyl)-2,3-dihydro-5H-[1,4]thiazino[2,3,4-ij]quinazolin-5-one]
7 | 64.8 | C=CC(=O)N1C[C@H](C)N(c2nc(=O)n3c4c(c(-c5ccc(F)cc5)c(C(F)(F)F)cc24)SC[C@@H]3CN2C[C@@H]3C[C@H]2CO3)C[C@H]1C [Example 1351, (S)-3-(((1S,4S)-2-oxa-5-azabicyclo[2.2.1]heptan-5-yl)methyl)-7-((2S,5R)-4-acryloyl-2,5-dimethylpiperazin-1-yl)-10-(4-fluorophenyl)-9-(trifluoromethyl)-2,3-dihydro-5H-[1,4]thiazino[2,3,4-ij]quinazolin-5-one]
8 | 95 | C=CC(=O)N1[C@H](C)CN(c2nc(=O)n3c4c(c(-c5ccc(F)cc5F)c(C(F)(F)F)cc24)SC[C@@H]3C)C[C@@H]1C [Example 1427, (3S)-7-((3S,5R)-4-acryloyl-3,5-dimethylpiperazin-1-yl)-10-(2,4-difluorophenyl)-3-methyl-9-(trifluoromethyl)-2,3-dihydro-5H-[1,4]thiazino[2,3,4-ij]quinazolin-5-one]

Row | Compound | % CAF 10 uM @ 60 min [%]
9 | C=CC(=O)N1C2COCC1CN(c1nc(=O)n3c4c(c(-c5ccc(F)cc5)c(C(F)(F)F)cc14)SC[C@@H]3COC)C2 [Example 1384, (3S)-7-(9-acryloyl-3-oxa-7,9-diazabicyclo[3.3.1]nonan-7-yl)-10-(4-fluorophenyl)-3-(methoxymethyl)-9-(trifluoromethyl)-2,3-dihydro-5H-[1,4]thiazino[2,3,4-ij]quinazolin-5-one] | 77.8

Same assay, conditions: 10 uM compound, 60 min incubation

Row | % CAF 10 uM @ 60 min [%] | Compound
10 | 64.9 | C=CC(=O)N1C[C@H](C)N(c2nc(=O)n3c4c(c(-c5cc(Cl)c(F)cc5F)c(C(F)(F)F)cc24)SCC2(COC2)C3)C[C@H]1C (single isomer, unassigned) [Example 1120]
11 | 95.6 | C=CC(=O)N1[C@H](C)CN(c2nc(=O)n3c4c(c(-c5cc(Cl)c(F)cc5F)c(C(F)(F)F)cc24)SC[C@H](N2CCOCC2)C3)C[C@@H]1C [Example 1105, (3R)-8-((3S,5R)-4-acryloyl-3,5-dimethylpiperazin-1-yl)-11-(5-chloro-2,4-difluorophenyl)-3-morpholino-10-(trifluoromethyl)-3,4-dihydro-2H,6H-[1,4]thiazepino [2,3,4-ij]quinazolin-6-one]
12 | 69 | C=CC(=O)N1[C@H](C)CN(c2nc(=O)n3c4c(c(-c5cc(Cl)c(F)cc5F)c(C(F)(F)F)cc24)SC[C@H](N2CCCC2)C3)C[C@@H]1C [Example 1129, (3R)-8-((3S,5R)-4-acryloyl-3,5-dimethylpiperazin-1-yl)-11-(5-chloro-2,4-difluorophenyl)-3-(pyrrolidin-1-yl)-10-(trifluoromethyl)-3,4-dihydro-2H,6H-[1,4]thiazepino [2,3,4-ij]quinazolin-6-one]
13 | 82.7 | C=CC(=O)N1[C@H](C)CN(c2nc(=O)n3c4c(c(-c5cc(Cl)c(F)cc5F)c(C(F)(F)F)cc24)SC[C@@H](N2CCOCC2)C3)C[C@@H]1C (atropisomer, axis not shown) [Example 1136, (3S,11R)-8-((3S,5R)-4-acryloyl-3,5-dimethylpiperazin-1-yl)-11-(5-chloro-2,4-difluorophenyl)-3-morpholino-10-(trifluoromethyl)-3,4-dihydro-2H,6H-[1,4]thiazepino [2,3,4-ij]quinazolin-6-one]

Same assay, conditions: 10 μM compound, after 1 hour

Row | CAF (% after 1 hour) [%] | Compound
14 | 95 | C=CC(=O)N1[C@H](C)CN(c2nc(=O)n3c4c(c(-c5nc(C(F)(F)F)cs5)c(C(F)(F)F)cc24)SC[C@@H](OC)C3)C[C@@H]1C [Example 1208, (S)-8-((3S,5R)-4-acryloyl-3,5-dimethylpiperazin-1-yl)-3-methoxy-10-(trifluoromethyl)-11-(4-(trifluoromethyl)thiazol-2-yl)-3,4-dihydro-2H,6H-[1,4]thiazepino[2,3,4-ij]quinazolin-6-one]
15 | 96 | [2H]C([2H])=C([2H])C(=O)N1[C@H](C)CN(c2nc(=O)n3c4c(c(-c5ccc(F)cc5)c(C(F)(F)F)cc24)SC[C@@H](OC)C3)C[C@@H]1C [Example 1228, (S)-8-((3S,5R)-4-(acryloyl-d3)-3,5-dimethylpiperazin-1-yl)-11-(4-fluorophenyl)-3-methoxy-10-(trifluoromethyl)-3,4-dihydro-2H,6H-[1,4]thiazepino[2,3,4-ij]quinazolin-6-one]
16 | 61 | C=C(F)C(=O)N1CCN(c2nc(=O)n3c4c(c(-c5ccc(F)cc5F)c(C(F)(F)F)cc24)SC[C@@H](OC)C3)CC1 [Example 1221, (3S)-11-(2,4-Difluorophenyl)-8-(4-(2-fluoroacryloyl)piperazin-1-yl)-3-methoxy-10-(trifluoromethyl)-3,4-dihydro-2H,6H-[1,4]thiazepino[2,3,4-ij]quinazolin-6-one]
17 | 95 | C=CC(=O)N1[C@H](C)CN(c2nc(=O)n3c4c(c(-c5cc(C(F)(F)F)ns5)c(C(F)(F)F)cc24)SC[C@@H](OC)C3)C[C@@H]1C [Example 1215, (S)-8-((3S,5R)-4-acryloyl-3,5-dimethylpiperazin-1-yl)-3-methoxy-10-(trifluoromethyl)-11-(3-(trifluoromethyl)isothiazol-5-yl)-3,4-dihydro-2H,6H-[1,4]thiazepino[2,3,4-ij]quinazolin-6-one]

Same assay, conditions: after 60 min

Row | CAF (% binding after 60 min) [%] | Compound
18 | 97 | C=CC(=O)N1[C@H](C)CN(c2nc(=O)n3c4c(c(-c5ccc(F)cc5F)c(C(F)(F)F)cc24)SC[C@@H](OCCN(C)C)C3)C[C@@H]1C [Example 1034, (3S)-8-((3S,5R)-4-acryloyl-3,5-dimethylpiperazin-1-yl)-11-(2,4-difluorophenyl)-3-(2-(dimethylamino)ethoxy)-10-(trifluoromethyl)-3,4-dihydro-2H,6H-[1,4]thiazepino[2,3,4-ij]quinazolin-6-one]
19 | 96 | C=CC(=O)N1[C@H](C)CN(c2nc(=O)n3c4c(c(-c5cc(Cl)c(F)cc5F)c(C(F)(F)F)cc24)SC[C@H](OCCOC)C3)C[C@@H]1C [Example 1030, (3R)-8-((3S,5R)-4-acryloyl-3,5-dimethylpiperazin-1-yl)-11-(5-chloro-2,4-difluorophenyl)-3-(2-methoxyethoxy)-10-(trifluoromethyl)-3,4-dihydro-2H,6H-[1,4]thiazepino[2,3,4-ij]quinazolin-6-one]
20 | 95 | C=CC(=O)N1[C@H](C)CN(c2nc(=O)n3c4c(c(-c5ccc(F)cc5)c(C(F)(F)F)cc24)SC[C@@H](O)C3)C[C@@H]1C [Example 1003, (S)-8-((3S,5R)-4-acryloyl-3,5-dimethylpiperazin-1-yl)-11-(4-fluorophenyl)-3-hydroxy-10-(trifluoromethyl)-3,4-dihydro-2H,6H-[1,4]thiazepino[2,3,4-ij]quinazolin-6-one]
